Laboratory results from patent US12564570B2, “Use of leoligin in the prevention of tissue damage” (UNIVERSITÄT LINZ, priority 2020, dated 2026).

How the values were obtained:
[1] = Metabolic stability assay in human liver S9 fraction; format: in vitro ADME; conditions: for elimination half live in liver S9: human liver S9 0.5 mg/ml, NADPH and UDPGA co-factors, 3 μM compound, 37° C., HPLC, first order kinetic
From the text: To gain insights into the enzymatic stability of a drug, the metabolic stability assay serves as an effective tool and also helps to separate applicable routes for drug uptake from less applicable ones e.g. due to fast hepatic clearance. When substances are applied orally, the liver clearance (first-pass effect) has the most influence on drug clearance and further on the amount of active drug reaching the site of action. Thus, in order to test hepatic clearance, 5-ML was exposed to subcellular fractions of liver and compound concentrations were assessed in a time-dependent manner.
The concept of in vitro metabolic stability testing is based on and predicts well liver metabolic clearance in vivo. Therefore, the subcellular fraction which accounts for most of the enzymatic activity of the organ is used, which contains intra and extra cellular enzymes of the liver. The elimination half live of 5-ML was calculated by the assessment of the elimination constant.
(§1) For the organ specific enzymatic degradation of a compound a reaction mix (1 ml) was made, and aliquots (50 μl) were taken at the timepoints indicated in the Figures to calculate the elimination constant by measuring the compound concentration over time using HPLC-based quantification.
(§2) The reaction mix contains: • Subcellular fraction of the specific organ (Liver S9, Lung microsomes, or Saliva), • Co-Factor Solution (NADPH and UDPGA). Co-factors are used in this assay to activate the enzymatic activity of the main metabolizing enzymes of the organ specific subcellular fractions. NADPH is needed for the Phase I oxidation where Cytochrome P450 […] accounts for the most and UDPGA is needed for the Phase II glucuronidation, • and the desired compound: 5-ML as active ingredient, Diclofenac as control, water as control; diluted in DMSO.
All compounds were tested in triplicates, except the solvent control (water instead of active compound 5-ML). […]

[2] = Metabolic stability assay in pooled human saliva; format: in vitro ADME
Description: as §1, §2
(§3) Preparation of the reaction mix (in Triplicates): • Take 980 μl organ specific subcellular fraction solution (0.5 mg/ml) of human liver S9 fraction in DPBS with Calcium and Magnesium, • Add 10 μl of substance stock solution dissolved in DMSO (c 0,003 M) from either 5-ML, Diclofenac or water as solvent control. […] Cells 2020, 9, 2048).
Materials & Methods are the same as in Example 4, except that pooled human saliva was used instead of S9 liver fraction. […]

[3] = Metabolic stability assay in pooled human lung microsomes; format: in vitro ADME; conditions: pooled human lung microsomes with co-factors; also printed as 23.1 h
Description: as §1, §2, §3
Next, 5-ML was exposed to lung microsomes (drug delivery by inhalation).
Materials & Methods are the same as in Example 4, except that lung microsomes were used instead of S9 liver fraction.

[4] = test system: myocardial infarction in mice; conditions: after induction of MI in mice, 10 injections per heart directly into the infarction zone; cited from earlier work
[5] = test system: myocardial infarction rat model; conditions: direct injection into the peri-infarction zone; cited from earlier work
[6] = test system: ATRA-signalling; conditions: Danzl et al. 2019; cited from earlier work
[7] = literature value; cited from earlier work

Compound	elimination half live in liver S9 [1] [min]	elimination constant of exponential first order kinetic ([1]; human liver S9, Ln(2)/k gives half live, time axis in minutes, in min-1)	elimination in saliva with co-factors ([2]; with co-factors (NADPH and UDPGA))	elimination half-life in saliva without co-factor ([2]; without co-factor solution) [h]	elimination half live in lung microsomes [3] [min]	infarction area [4]	arteriogenesis in vivo [5]	inhibition of ATRA-signalling [6]	estimated half live in human liver in literature [7] [h]
C/C=C(/C)C(=O)OC[C@H]1[C@@H](Cc2ccc(OC)c(OC)c2)CO[C@@H]1c1cc(OC)c(OC)c(OC)c1 [5-ML]	10.66	0,065	no elimination	115.5	1386	reduces the infarction area	induced arteriogenesis	capable of inhibiting ATRA-signalling	–
O=C(O)Cc1ccccc1Nc1c(Cl)cccc1Cl [diclofenac, reference compound]	173	–	–	–	–	–	–	–	1 to 3
